From patent publication US20120136033A1, “Small Molecule Antagonists of Phosphatidylinositol-3,4,5-Triphosphate (PIP3) and Uses Thereof” (President and Fellows of Harvard College, priority 2009, published 2012)

Experiments:
[1] = stability in dimethylsulfoxide; assay type: physicochemical
[2] = target: T1, R86A mutant of the Akt PH domain (Homo sapiens, UniProt P31749, R86A); experiment: NMR HSQC, R86A mutant of the PH domain; assay type: binding
T1 construct: Human Akt PH domain a.a; 1-123; His6 (N); made in house; host or cells: E. coli BL21(DE3)

[3] = tested on: PI3K-PDK1-Akt signaling; experiment: PI3K-PDK1-Akt signaling in growth factor-stimulated SUM159 cells; assay type: cell-based, human
[4] = tested on: U87MG cells; experiment: long-term colony formation by U87MG cells; assay type: cell-based, human
[5] = tested on: U87MG cells (R130M PTEN vs wt PTEN); experiment: Sytox cell death assay, U87MG expressing wild-type or R130M inactive PTEN; assay type: cell-based, human; conditions: 25, 50, 100 μM, 48 hr
Protocol: After treatment with 25, 50, or 100 μM PIT-1 for 48 hr, cell death was analyzed using Sytox cell death assay.
Based on the critical role of PIP3-dependent Akt signaling in the regulation of cell survival, the effect of PIT-1 on the cancer cell viability was tested. Cancer cells were seeded into 96-well plates (white plates for ATP assay; black plates for fluorescent assay; clear plates for MTS assay) at the density of 5-10×10^3 cells per well in 100 μl of the appropriate media. Compounds were added at a series of concentrations and incubated for different times. For the ATP assay, a luminescence-based commercial kit (CellTiter-Glo, Promega, Madison, Wis.) was used. Thirty microliters of cell lysis/ATP detection reagent was added to each well, mixed for 10 min at room temperature, and the luminescence was measured using a Wallac Victor 3 plate reader (Perkin-Elmer, Wellesley, Mass.). […] Twenty microliters of the combined MTS/PMS solution was added into each well, incubated for 4 hr at 37° C., and the absorbance at 490 nm was measured using a Wallac Victor 3 plate reader. For the Sytox cell death assay, measuring loss of plasma membrane integrity, cells were incubated with 1 μM Sytox Green reagent (Molecular Probes, Eugene, Oreg.) for 30 min at 37° C. and the fluorescence intensity was measured using Wallac Victor 3 plate reader with excitation at 485 nm and emission at 545 nm. […]

[6] = tested on: U87MG cells; experiment: sensitization of U87MG cells to killing by TRAIL, ATP assay; assay type: cell-based, human; conditions: 50 μM PITs or 10 μM Akt inhibitor VIII, 10 ng/ml TRAIL, 48 hr
Protocol: FIG. 10 is a bar graph depicting that PITs, as well as Akt inhibitor VIII, sensitize U87MG cells to killing by TRAIL. U87MG cells were incubated with 50 μM PIT-1, PIT-2, PIT-1i-1 or 10 μM Akt inhibitor VIII in the presence or absence of 10 ng/ml TRAIL for 48 hr, followed by cell viability analysis using ATP assay.
Based on the critical role of PIP3-dependent Akt signaling in the regulation of cell survival, the effect of PIT-1 on the cancer cell viability was tested. Cancer cells were seeded into 96-well plates (white plates for ATP assay; black plates for fluorescent assay; clear plates for MTS assay) at the density of 5-10×10^3 cells per well in 100 μl of the appropriate media. […] For the ATP assay, a luminescence-based commercial kit (CellTiter-Glo, Promega, Madison, Wis.) was used. Thirty microliters of cell lysis/ATP detection reagent was added to each well, mixed for 10 min at room temperature, and the luminescence was measured using a Wallac Victor 3 plate reader (Perkin-Elmer, Wellesley, Mass.). […] Twenty microliters of the combined MTS/PMS solution was added into each well, incubated for 4 hr at 37° C., and the absorbance at 490 nm was measured using a Wallac Victor 3 plate reader. […] Next, 5 μl of 20% (v/v) Triton X-100 solution was added to each well and incubated for 1 hr at 37° C., and the signal was measured again. […]

[7] = tested on: AMP-activated protein kinase (AMPK); experiment: phosphorylation of AMPK and ACC (metabolic stress); assay type: cell-based
Excerpt: Changes in cell metabolism have emerged in recent years as an important component of PI3K/PIP3/Akt signaling, contributing to the regulation of cell viability and transformation by the PI3K/Akt pathway. Datta S R et al. (1999) Genes Dev 13:2905-27; Elstrom R L et al. (2004) Cancer Res 64:3892-9. Therefore, the possibility that PIT-1 may cause dysregulation of energy homeostasis and induction of the metabolic stress in cancer cells, which may contribute to the PIT-induced cell death, was investigated. […] Hardie D G (2007) Nat Rev Mol Cell Biol 8:774-85. […] Mathew R et al. (2007) Nat Rev Cancer 7:961-7. […] Takeuchi H et al. (2005) Cancer Res 65:3336-46.

[8] = tested on: PI3K/PDK1/Akt signaling pathway; experiment: PI3K/PDK1/Akt signaling in HUVEC, Western blotting; assay type: cell-based, human; conditions: 50, 100, 200 μM, 2 hr, bFGF
Protocol: Endothelial cell migration plays a central role in tumor angiogenesis. Avraamides C J et al. (2008) Nat Rev Cancer 8:604-17. […] First, human umbilical vein endothelial cells (HUVEC) cells were serum starved overnight, and treated with different concentrations of PIT-1 (50, 100 and 200 μM) for 2 hr, followed by stimulation with 10 ng/ml bFGF for 15 min, and the PIP3-dependent phosphorylation events were evaluated by Western blotting.

[9] = tested on: rat aortic rings; experiment: rat aortic ring microvessel outgrowth assay; assay type: cell-based; conditions: 144 h; rat aortic rings in matrigel, 6 days, 3.125-100 μM; read-out: IC50, microvessel outgrowth in aortic ring sprouting
Protocol: For the aortic ring assay, aortas were isolated from 6-week old Sprague-Dawley rats and immediately transferred to a culture dish with serum-free medium. The fibroadipose tissue around the aortas was carefully removed and the aortas were cut into 1-mm long aortic ring fragments. After three consecutive washes in serum-free medium, the aortic rings were embedded into 70 μl Matrigel in 96-well plate and fed with 100 μl of serum-free M199 medium with or without PIT-1 at different concentrations (3.125-100 μM). The medium was replaced every 24 hr. Phase-contrast images were obtained on day 6, and the numbers of microvessel outgrowths per ring were counted.
Microvessel growth from rat aorta sections is the result of a combination of endothelial cell proliferation, migration, and tube formation, and thus provides a close approximation of in vivo angiogenesis. For this experiment the rat aortic rings were embedded in matrigel and then were treated with PIT-1 (3.125-100 μM) for 6 days, followed by counting the number of microvessel outgrowths under microscope.

T1 sequence (P31749 1-123 R86A): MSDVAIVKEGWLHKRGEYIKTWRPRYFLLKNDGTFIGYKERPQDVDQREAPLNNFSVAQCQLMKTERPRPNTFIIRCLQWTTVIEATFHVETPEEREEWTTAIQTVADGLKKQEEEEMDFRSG

Row | SMILES | stability in dimethylsulfoxide (DMSO) [1] | effect on HSQC of R86A mutant PH domain [2] | PI3K-PDK1-Akt signaling in SUM159 cells [3] | long-term colony formation by U87MG cells [4] | toxicity in U87MG cells lacking PTEN activity compared to wt PTEN-expressing cells [5] | sensitization of U87MG cells to killing by TRAIL [6] | phosphorylation of AMPK [7] | phosphorylation of acetyl-CoA carboxylase (ACC) [7] | PI3K/PDK1/Akt signaling pathway in HUVEC [8] | IC50 [9] [µM]
1 | O=C1NC(=S)S/C1=C\c1cc(O)c([N+](=O)[O-])cc1Cc1ccccc1 [PIT-2] | limited stability | – | – | – | – | – | – | – | – | –
2 | O=C(NC(=S)Nc1cc([N+](=O)[O-])cc(Cl)c1O)c1ccccc1 [PIT-1] | – | had no effect | significantly suppressed | suppressed long-term colony formation | more pronounced | substantially sensitized | significant increase in the phosphorylation | Increased phosphorylation | capable of blocking | 4.58
